Literature values as cited in US20040266650A1, “Washing and/or cleaning article” (priority 2001, published 2004).
≈ marks a conversion by molar mass, not a printed value. Read-outs that look alike come from different tables or passages of the source. Blank lines part the entries; values can stand above or below the compound they belong to.

Compound: O=C(O)CC(O)C(=O)O (racemic) [DL-Malic acid]
Solubility (Table 2, in water at 26° C.): 1440 mg/mL (≈ 10700 mM) | Solubility (Table 3, in water at 26° C.): 1440 mg/mL (≈ 10700 mM)

Compound: [Cl-].[Cs+] [Cesium chloride]
Solubility (Table 2, in water at 20° C.): 1800 mg/mL

Solubility (Table 2, in water at 25° C.): 680 mg/mL (≈ 3770 mM)
Compound: O=C[C@H](O)[C@@H](O)[C@@H](O)[C@H](O)CO [D(+)-Galactose]

Compound: O=C(CO)[C@@H](O)[C@H](O)[C@@H](O)CO [L-(−)-Sorbose]
Solubility (Table 2, in water at 17° C.): 550 mg/mL (≈ 3050 mM)

Solubility (Table 2, in water at 25° C.): 788 mg/mL (≈ 6790 mM) | Solubility (Table 3, in water at 25° C.): 788 mg/mL (≈ 6790 mM)
Compound: O=C(O)/C=C\C(=O)O [Maleic acid]

Compound: [Cl-].[K+] [Potassium chloride]
Solubility (Table 2, in water at 20° C.): 340 mg/mL

Compound: NC(N)=O [Urea]
Solubility (Table 2, in water at 20° C.): 1080 mg/mL (≈ 18000 mM)

Compound: [Cl-].[Cl-].[Zn+2] [Zinc chloride]
Solubility (Table 2, in water at 20° C.): 3680 mg/mL

Solubility (Table 2, in water at 20° C.): 1000 mg/mL | Solubility (Table 3, in water, no temperature printed (Table 2: 20° C.)): 1000 mg/mL
Compound: Sodium polyphosphate
